Patent US20100297109A1, “METHODS FOR INHIBITING FASCIN” (Cornell University, priority 2007, published 2010)

How the values were obtained:
Type in all cases: cell-based
[1] = test system: human breast tumor MDA-MB 231 cells; test: Cell migration assay, MDA-MB-231 cells
Experimental: Cells. Mouse 4T1 mammary tumor cells and human MDA-MB-231 breast tumor cells were obtained from ATCC and have been described previously (Shan et al. 2005, Yang et al. 2005). 4T1 cells were cultured in RPMI 1640 medium supplemented with 10% FBS. MDA-MB-231 cells were cultured in DMEM supplemented with 10% FBS. Wound-healing assay. The wound-healing assay involves observing whether confluent cells can migrate across a scrape or wound in the cell layer. Cell migration assays were performed as described previously (Yang et al. 2005, Shan et al 2006). Tumor cells were plated in a 24-well plate coated with gelatin in standard media. […] Photographs several random regions of the filter facing the second chamber are taken and the number of cells counted to calculate the average number of cells that had transmigrated.
Boyden Chamber Cell Migration Assay. […] Three randomly selected fields (10× objectives) on the lower side of the insert were photographed, and the migrated cells were counted. The migration was expressed as either the average number of migrated cells in a field or as percentage of migrated cells in positive control. Percentage was calculated with the formula P=100×(M−Mnc)/Mpc, where P is the percentage of migrated cells, M is the number of migrated cells, Mnc is the number of migrated cells in negative controls, and Mpc is the number of migrated cells in positive controls.

[2] = test system: human fascin His474 to Lys or Ala mutants; test: Chamber migration of fascin siRNA-treated 4T1 cells rescued with His474 mutants of human fascin; details: His474 to Lys or Ala human fascin in fascin siRNA-treated 4T1 cells
Experimental: (§1) Boyden Chamber Cell Migration Assay. Cells (5×10^4) suspended in starvation medium were added to the upper chamber of an insert (6.5 mm diameter, 8-micrometer pore size, Becton Dickenson), and the insert was placed in a 24-well dish containing starvation medium with or without 10% FBS (Yang et al. 2005, Shan et al. 2006). When used, inhibitors were added to both chambers. Migration assays were carried out for 4-6 hours and cells were fixed with 3.7% formaldehyde. Cells were stained with crystal violet staining solution, and cells on the upper side of the insert were removed with a cotton swab. Three randomly selected fields (10× objectives) on the lower side of the insert were photographed, and the migrated cells were counted. The migration was expressed as either the average number of migrated cells in a field or as percentage of migrated cells in positive control. Percentage was calculated with the formula P=100×(M−Mnc)/Mpc, where P is the percentage of migrated cells, M is the number of migrated cells, Mnc is the number of migrated cells in negative controls, and Mpc is the number of migrated cells in positive controls.

Drosophila fascin = molecular target: T1, Drosophila fascin (Drosophila melanogaster, UniProt Q24524); test: Migration of fascin siRNA-treated 4T1 cells rescued with Drosophila fascin; details: Drosophila fascin in fascin siRNA-treated 4T1 cells
T1 construct: expressed in transfected cells; host or cells: 4T1 mouse mammary tumor cells treated with fascin siRNAs
T1 sequence (Q24524 1-512): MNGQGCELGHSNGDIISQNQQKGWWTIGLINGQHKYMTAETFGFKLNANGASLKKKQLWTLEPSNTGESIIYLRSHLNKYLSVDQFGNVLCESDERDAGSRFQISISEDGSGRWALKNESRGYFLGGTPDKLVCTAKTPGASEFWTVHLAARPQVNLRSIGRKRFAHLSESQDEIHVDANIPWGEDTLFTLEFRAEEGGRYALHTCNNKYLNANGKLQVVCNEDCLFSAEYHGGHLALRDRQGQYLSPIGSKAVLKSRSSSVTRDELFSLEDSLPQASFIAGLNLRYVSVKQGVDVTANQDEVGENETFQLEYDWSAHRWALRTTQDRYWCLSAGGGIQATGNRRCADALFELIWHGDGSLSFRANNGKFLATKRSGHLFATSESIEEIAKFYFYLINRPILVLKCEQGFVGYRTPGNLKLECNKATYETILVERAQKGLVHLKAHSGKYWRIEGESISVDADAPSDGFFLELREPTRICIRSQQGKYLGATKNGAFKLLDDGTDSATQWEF
Experimental: as §1

## COC1C=CCCCCC(=O)CCC(C)=CC(C)C1O (stereo not drawn) [macroketone, Migrastatin ketone]
[1]
  inhibition of migration: inhibited the migration
[2]
  inhibition of rescued migration: not inhibited
Drosophila fascin
  sensitivity of rescued migration: no sensitivity
